Test results from US10499642B2, “Isoxazoline-substituted benzamides and analogues as insecticides” (SYNGENTA PARTICIPATIONS AG, priority 2015, dated 2019).
Where two headings read alike, the source gives them in different places.

Experiments:
Type in all cases: in vivo
Tetranychus urticae = Tetranychus urticae (two-spotted spider mite) bean leaf disc test; conditions: foliar, 192 h
Method: Tetranychus urticae (Two-Spotted Spider Mite):
Bean leaf discs on agar in 24-well microtiter plates were sprayed with aqueous test solutions prepared from 10′000 ppm DMSO stock solutions. After drying the leaf discs were infested with a mite population of mixed ages. The samples were assessed for mortality on mixed population (mobile stages) 8 days after infestation.

Spodoptera littoralis = Spodoptera littoralis (Egyptian cotton leaf worm) cotton leaf disc test; conditions: foliar, 72 h, read-out: control (at least one of mortality, anti-feedant effect, and growth inhibition)
Method: Spodoptera littoralis (Egyptian Cotton Leaf Worm)
Cotton leaf discs were placed on agar in 24-well microtiter plates and sprayed with aqueous test solutions prepared from 10′000 ppm DMSO stock solutions. After drying the leaf discs were infested with five L1 larvae. The samples were assessed for mortality, anti-feedant effect, and growth inhibition in comparison to untreated samples 3 days after infestation. Control of Spodoptera littoralis by a test sample is when at least one of mortality, anti-feedant effect, and growth inhibition is higher than the untreated sample.

Plutella xylostella = Plutella xylostella (diamond back moth) artificial diet test; conditions: 120 h, read-out: effect in at least one of the two categories (mortality or growth inhibition)
Method: Plutella xylostella (Diamond Back Moth):
(§1) 24-well microtiter plates with artificial diet were treated with aqueous test solutions prepared from 10′000 ppm DMSO stock solutions by pipetting. After drying, the plates were infested with L2 larvae (10 to 15 per well). The samples were assessed for mortality and growth inhibition in comparison to untreated samples 5 days after infestation. The following compounds gave an effect of at least 80% in at least one of the two categories (mortality or growth inhibition) at an application rate of 200 ppm: […]

Diabrotica Balteata = assay: Diabrotica balteata (corn root worm) maize sprout test; conditions: 96 h, read-out: effect in at least one of the two categories (mortality or growth inhibition)
Method: Diabrotica Balteata, (Corn Root Worm)
as §1, with “Maize sprouts, placed on an agar layer in 24-well” for “24-well”, “plates” for “plates with artificial diet”, “spraying.” for “pipetting.”, “(6” for “(10”, “10” for “15”, “4” for “5”

Thrips tabaci = Thrips tabaci (onion thrips) sunflower leaf disc test; conditions: foliar, 144 h
Method: Thrips tabaci (Onion Thrips):
Sunflower leaf discs were placed on agar in 24-well microtiter plates and sprayed with aqueous test solutions prepared from 10′000 ppm DMSO stock solutions. After drying the leaf discs were infested with a thrips population of mixed ages. The samples were assessed for mortality 6 days after infestation.

[1] = application rate 200 ppm, bean leaf discs, mixed population (mobile stages), 8 days after infestation, read-out: mortality
[2] = application rate 200 ppm, cotton leaf discs, L1 larvae, 3 days after infestation
[3] = application rate 200 ppm, artificial diet, L2 larvae, 5 days after infestation
[4] = application rate 200 ppm, maize sprouts, L2 larvae, 4 days after infestation
[5] = application rate 200 ppm, sunflower leaf discs, population of mixed ages, 6 days after infestation, read-out: mortality

Cc1cc(C2=NO[C@@](c3cc(Cl)c(F)c(Cl)c3)(C(F)(F)F)C2)ccc1C(=O)N[C@H]1CC(Br)=NO1 (single isomer, unassigned) [Compound A146]
≥ 80%: mortality at 200 ppm (Tetranychus urticae) | percent control (mortality, anti-feedant effect or growth inhibition) at 200 ppm (Spodoptera littoralis) | percent effect (mortality or growth inhibition) at 200 ppm (Plutella xylostella) | percent effect (mortality or growth inhibition) at 200 ppm (Diabrotica Balteata) | mortality at 200 ppm (Thrips tabaci)

COC1=NO[C@@H](NC(=O)c2ccc(C3=NO[C@@](c4cc(Cl)c(F)c(Cl)c4)(C(F)(F)F)C3)cc2C)C1 (single isomer, unassigned) [Compound A151]
≥ 80%: mortality at 200 ppm (Tetranychus urticae) | percent control (mortality, anti-feedant effect or growth inhibition) at 200 ppm (Spodoptera littoralis) | percent effect (mortality or growth inhibition) at 200 ppm (Plutella xylostella) | percent effect (mortality or growth inhibition) at 200 ppm (Diabrotica Balteata) | mortality at 200 ppm (Thrips tabaci)

COC1=NO[C@H](N(C(=O)OC(C)(C)C)C(=O)c2ccc(C3=NO[C@@](c4cc(Cl)c(Cl)c(Cl)c4)(C(F)(F)F)C3)cc2C)C1 (single isomer, unassigned) [Compound A152]
≥ 80%: mortality at 200 ppm (Tetranychus urticae) | percent control (mortality, anti-feedant effect or growth inhibition) at 200 ppm (Spodoptera littoralis) | percent effect (mortality or growth inhibition) at 200 ppm (Plutella xylostella) | percent effect (mortality or growth inhibition) at 200 ppm (Diabrotica Balteata) | mortality at 200 ppm (Thrips tabaci)

COC1=NO[C@@H](N(C(=O)OC(C)(C)C)C(=O)c2ccc(C3=NO[C@@](c4cc(Cl)c(Cl)c(Cl)c4)(C(F)(F)F)C3)cc2C)C1 (single isomer, unassigned) [Compound A153]
≥ 80%: mortality at 200 ppm (Tetranychus urticae) | percent control (mortality, anti-feedant effect or growth inhibition) at 200 ppm (Spodoptera littoralis) | percent effect (mortality or growth inhibition) at 200 ppm (Plutella xylostella) | percent effect (mortality or growth inhibition) at 200 ppm (Diabrotica Balteata) | mortality at 200 ppm (Thrips tabaci)

Cc1cc(C2=NO[C@@](c3cc(Cl)cc(Cl)c3)(C(F)(F)F)C2)ccc1C(=O)N[C@H]1CC(OCC(F)(F)F)=NO1 (single isomer, unassigned) [Compound A157]
≥ 80%: mortality at 200 ppm (Tetranychus urticae) | percent control (mortality, anti-feedant effect or growth inhibition) at 200 ppm (Spodoptera littoralis) | percent effect (mortality or growth inhibition) at 200 ppm (Plutella xylostella) | percent effect (mortality or growth inhibition) at 200 ppm (Diabrotica Balteata) | mortality at 200 ppm (Thrips tabaci)

CCOC1=NO[C@@H](NC(=O)c2ccc(C3=NO[C@@](c4cc(Cl)cc(Cl)c4)(C(F)(F)F)C3)cc2C)C1 (single isomer, unassigned) [Compound A159]
≥ 80%: mortality at 200 ppm (Tetranychus urticae) | percent control (mortality, anti-feedant effect or growth inhibition) at 200 ppm (Spodoptera littoralis) | percent effect (mortality or growth inhibition) at 200 ppm (Plutella xylostella) | percent effect (mortality or growth inhibition) at 200 ppm (Diabrotica Balteata) | mortality at 200 ppm (Thrips tabaci)

CCOC(=O)C1=NOC(N(C=O)C(=O)c2ccc(C3=NO[C@@](c4cc(Cl)c(F)c(Cl)c4)(C(F)(F)F)C3)cc2C)C1 (stereo partly drawn) [Compound A006, ethyl 5-[[4-[(5S)-5-(3,5-dichloro-4-fluoro-phenyl)-5-(trifluoromethyl)-4H-isoxazol-3-yl]-2-methyl-benzoyl]-formyl-amino]-4,5-dihydroisoxazole-3-carboxylate]
≥ 80%: percent control (mortality, anti-feedant effect or growth inhibition) at 200 ppm (Spodoptera littoralis) | percent effect (mortality or growth inhibition) at 200 ppm (Plutella xylostella) | percent effect (mortality or growth inhibition) at 200 ppm (Diabrotica Balteata) | mortality at 200 ppm (Thrips tabaci)

CCOC(=O)C1=NOC(NC(=O)c2ccc(C3=NO[C@@](c4cc(Cl)c(F)c(Cl)c4)(C(F)(F)F)C3)cc2C)C1 (stereo partly drawn) [Compound A007, ethyl 5-[[4-[(5S)-5-(3,5-dichloro-4-fluoro-phenyl)-5-(trifluoromethyl)-4H-isoxazol-3-yl]-2-methyl-benzoyl]amino]-4,5-dihydroisoxazole-3-carboxylate]
≥ 80%: mortality at 200 ppm (Tetranychus urticae) | percent control (mortality, anti-feedant effect or growth inhibition) at 200 ppm (Spodoptera littoralis) | percent effect (mortality or growth inhibition) at 200 ppm (Plutella xylostella) | percent effect (mortality or growth inhibition) at 200 ppm (Diabrotica Balteata) | mortality at 200 ppm (Thrips tabaci)

CSC1=NOC(NC(=O)c2ccc(C3=NO[C@@](c4cc(Cl)c(SC)c(Cl)c4)(C(F)(F)F)C3)cc2C)C1 (stereo partly drawn) [Compound A020, 4-[(5S)-5-(3,5-dichloro-4-methylsulfanyl-phenyl)-5-(trifluoromethyl)-4H-isoxazol-3-yl]-2-methyl-N-(3-methylsulfanyl-4,5-dihydroisoxazol-5-yl)benzamide]
≥ 80%: mortality at 200 ppm (Tetranychus urticae) | percent control (mortality, anti-feedant effect or growth inhibition) at 200 ppm (Spodoptera littoralis) | percent effect (mortality or growth inhibition) at 200 ppm (Plutella xylostella) | percent effect (mortality or growth inhibition) at 200 ppm (Diabrotica Balteata) | mortality at 200 ppm (Thrips tabaci)

CCS(=O)(=O)C1=NOC(NC(=O)c2ccc(C3=NO[C@@](c4cc(Cl)c(Cl)c(Cl)c4)(C(F)(F)F)C3)cc2C)C1 (some centres unmarked) [Compound A053]
≥ 80%: mortality at 200 ppm (Tetranychus urticae) | percent control (mortality, anti-feedant effect or growth inhibition) at 200 ppm (Spodoptera littoralis) | percent effect (mortality or growth inhibition) at 200 ppm (Plutella xylostella) | percent effect (mortality or growth inhibition) at 200 ppm (Diabrotica Balteata) | mortality at 200 ppm (Thrips tabaci)

Cc1cc(C2=NO[C@@](c3cc(Cl)c(F)c(Cl)c3)(C(F)(F)F)C2)ccc1C(=O)N(C(=O)OC(C)(C)C)C1CC(Cl)=NO1 (stereo partly drawn) [Compound A067, tert-butyl N-(3-chloro-4,5-dihydroisoxazol-5-yl)-N-[4-[(5S)-5-(3,5-dichloro-4-fluoro-phenyl)-5-(trifluoromethyl)-4H-isoxazol-3-yl]-2-methyl-benzoyl]carbamate]
≥ 80%: mortality at 200 ppm (Tetranychus urticae) | percent control (mortality, anti-feedant effect or growth inhibition) at 200 ppm (Spodoptera littoralis) | percent effect (mortality or growth inhibition) at 200 ppm (Plutella xylostella) | percent effect (mortality or growth inhibition) at 200 ppm (Diabrotica Balteata) | mortality at 200 ppm (Thrips tabaci)

Cc1cc(C2=NO[C@@](c3cc(Cl)c(F)c(Cl)c3)(C(F)(F)F)C2)ccc1C(=O)N(C(=O)OC(C)(C)C)C1CC(COC2CCCCO2)=NO1 (some centres unmarked) [Compound A068]
≥ 80%: mortality at 200 ppm (Tetranychus urticae; [1]) | percent control (mortality, anti-feedant effect or growth inhibition) at 200 ppm (Spodoptera littoralis; [2]) | percent effect (mortality or growth inhibition) at 200 ppm (Plutella xylostella; [3]) | percent effect (mortality or growth inhibition) at 200 ppm (Diabrotica Balteata; [4]) | mortality at 200 ppm (Thrips tabaci; [5])

COCC1=NOC(N(C(=O)OC(C)(C)C)C(=O)c2ccc(C3=NO[C@@](c4cc(Cl)c(F)c(Cl)c4)(C(F)(F)F)C3)cc2C)C1 (some centres unmarked) [Compound A088]
≥ 80%: mortality at 200 ppm (Tetranychus urticae) | percent control (mortality, anti-feedant effect or growth inhibition) at 200 ppm (Spodoptera littoralis) | percent effect (mortality or growth inhibition) at 200 ppm (Plutella xylostella) | percent effect (mortality or growth inhibition) at 200 ppm (Diabrotica Balteata) | mortality at 200 ppm (Thrips tabaci)

O=C(NC1CC(Br)=NO1)c1ccc(C2=NO[C@@](c3cc(Cl)cc(Cl)c3)(C(F)(F)F)C2)cc1Cl (some centres unmarked) [Compound A093]
≥ 80%: mortality at 200 ppm (Tetranychus urticae) | percent control (mortality, anti-feedant effect or growth inhibition) at 200 ppm (Spodoptera littoralis) | percent effect (mortality or growth inhibition) at 200 ppm (Plutella xylostella) | percent effect (mortality or growth inhibition) at 200 ppm (Diabrotica Balteata) | mortality at 200 ppm (Thrips tabaci)

Cc1cc(C2=NO[C@@](c3cc(Cl)c(F)c(Cl)c3)(C(F)(F)F)C2)ccc1C(=O)NC1CC(C(=O)O)=NO1 (some centres unmarked) [Compound A117]
≥ 80%: mortality at 200 ppm (Tetranychus urticae) | percent control (mortality, anti-feedant effect or growth inhibition) at 200 ppm (Spodoptera littoralis) | percent effect (mortality or growth inhibition) at 200 ppm (Plutella xylostella) | percent effect (mortality or growth inhibition) at 200 ppm (Diabrotica Balteata) | mortality at 200 ppm (Thrips tabaci)

Cc1cc(C2=NO[C@@](c3cc(Cl)c(F)c(Cl)c3)(C(F)(F)F)C2)ccc1C(=O)NC1CC(/C=N/O)=NO1 (some centres unmarked) [Compound A118]
≥ 80%: mortality at 200 ppm (Tetranychus urticae) | percent control (mortality, anti-feedant effect or growth inhibition) at 200 ppm (Spodoptera littoralis) | percent effect (mortality or growth inhibition) at 200 ppm (Plutella xylostella) | percent effect (mortality or growth inhibition) at 200 ppm (Diabrotica Balteata) | mortality at 200 ppm (Thrips tabaci)

CCOC1=NOC(N(C(=O)c2ccc(C3=NO[C@@](c4cc(Cl)c(F)c(Cl)c4)(C(F)(F)F)C3)cc2C)[C@H](C)c2ccc(OC)cc2)C1 (some centres unmarked) [Compound A131]
≥ 80%: mortality at 200 ppm (Tetranychus urticae; [1]) | percent control (mortality, anti-feedant effect or growth inhibition) at 200 ppm (Spodoptera littoralis; [2]) | percent effect (mortality or growth inhibition) at 200 ppm (Plutella xylostella; [3]) | percent effect (mortality or growth inhibition) at 200 ppm (Diabrotica Balteata; [4]) | mortality at 200 ppm (Thrips tabaci; [5])

Cc1cc(C2=NO[C@@](c3cc(Cl)c(Cl)c(Cl)c3)(C(F)(F)F)C2)ccc1C(=O)NC1CC(OS(C)(=O)=O)=NO1 (stereo partly drawn) [Compound A135, [5-[[2-methyl-4-[(5S)-5-(3,4,5-trichlorophenyl)-5-(trifluoromethyl)-4H-isoxazol-3-yl]benzoyl]amino]-4,5-dihydroisoxazol-3-yl] methanesulfonate]
≥ 80%: mortality at 200 ppm (Tetranychus urticae) | percent control (mortality, anti-feedant effect or growth inhibition) at 200 ppm (Spodoptera littoralis) | percent effect (mortality or growth inhibition) at 200 ppm (Plutella xylostella) | percent effect (mortality or growth inhibition) at 200 ppm (Diabrotica Balteata) | mortality at 200 ppm (Thrips tabaci)
